Results from paper PMC12822184, “Targeting E2F8 sensitizes gemcitabine-resistant gallbladder cancer to PARP inhibitors by disrupting RRM2-driven DNA repair” (Journal of Experimental & Clinical Cancer Research : CR, 2025).

What was measured:
E2F8 DNA-binding domain [1] = target: T1, E2F8 DNA-binding domain (Homo sapiens, UniProt A0AVK6, R156A/R314A); test: SPR (Biacore 8K, CM5 amine coupling, steady-state […])
T1 construct: N-terminal thioredoxin-6xHis tag removed by TEV protease; E. coli Rosetta (DE3) pLysS
T1 sequence (A0AVK6 110-350 R156A/R314A): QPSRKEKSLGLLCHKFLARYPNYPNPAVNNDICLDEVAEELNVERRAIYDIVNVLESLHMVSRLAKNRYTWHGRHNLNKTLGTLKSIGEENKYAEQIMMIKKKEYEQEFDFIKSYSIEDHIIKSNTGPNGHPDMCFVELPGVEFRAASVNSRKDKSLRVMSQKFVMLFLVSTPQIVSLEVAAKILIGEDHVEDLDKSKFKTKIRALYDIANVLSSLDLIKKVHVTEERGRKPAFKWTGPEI

E2F8 DNA-binding domain [2] = target: T2, E2F8 DNA-binding domain (Homo sapiens, UniProt A0AVK6); test: as above
T2 construct: N-terminal thioredoxin-6xHis tag removed by TEV protease; E. coli Rosetta (DE3) pLysS
T2 sequence (A0AVK6 110-350): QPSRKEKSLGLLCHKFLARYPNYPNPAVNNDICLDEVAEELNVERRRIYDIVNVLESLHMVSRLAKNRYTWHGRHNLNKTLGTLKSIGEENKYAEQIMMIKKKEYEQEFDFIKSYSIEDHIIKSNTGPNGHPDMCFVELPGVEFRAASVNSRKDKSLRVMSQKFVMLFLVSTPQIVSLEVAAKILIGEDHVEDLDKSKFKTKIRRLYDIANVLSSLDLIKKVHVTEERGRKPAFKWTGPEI

Kd (E2F8 DNA-binding domain [1]): 7.96 µM | Kd (E2F8 DNA-binding domain [2]): 0.15 µM
SMILES: O=C(Nc1ccccc1C(=O)O)c1cccc(N2C(=O)c3ccc(C(=O)Nc4ccccc4C(=O)O)cc3C2=O)c1 [HIT-4]
